{
  "source": "patent US7592326B2",
  "about": "“Method for stimulating the immune, inflammatory or neuroprotective response” (priority 2004, dated 2009)",
  "key": {"JNK": {"tested_on": "JNK", "experiment": "Signaling in human DCs: JNK", "type": "cell-based", "details": "under the conditions tested", "method": "Human PBMC were isolated by Ficoll density gradient centrifugation from leukopacks supplied by the Department of Transfusion Medicine (Clinical Center, National Institute of Health, Bethesda, Md.). Monocytes were purified (>95%) from human PBMC with MACS CD14 monocyte isolation kit (Miltenyi Biotech Inc., Auburn, Calif.) according to the manufacturer's instruction. DCs were generated as described previously (Yang et al., 2001). In brief, DCs were generated by incubating purified monocytes at 2×10^5/ml in RPMI 1640 containing 10% FBS, 2 mM glutamine, 25 mM HEPES, 100 U/ml penicillin, 100 ug/ml streptomycin, 50 ng/ml recombinant human GM-CSF (PeproTech, Rocky Hill, N.J.), and 50 ng/ml recombinant human IL-4 (PeproTech) at 37° C. in a CO2 (5%) incubator for 7 days. On day 3 and 5 of the incubation, half of the culture medium was replaced with pre-warmed (37° C.) fresh GM-CSF- and IL-4-containing medium. On day 7, DCs were collected, washed three times with PBS, and serum-starved for 8 hours by incubating in serum-free RPMI-1640 containing GM-CSF and IL-4 (2×10^5/ml) at 37° C. in a CO2 (5%) incubator. Subsequently, DCs (2×10^6/sample) were incubated at 37° C. in the absence or presence of c-di-GMP or GMP (Sigma, St. Louis, Mo.) at concentrations specified for 5 or 30 minutes. […]"}, "C. albicans": {"tested_on": "C. albicans", "experiment": "Candidiasis of oral mucosal surfaces and intestinal tract in mice (proposed)", "type": "in vivo, Candida albicans", "details": "C. albicans in drinking water", "from_the_text": "Dissemination to livers occurs and is 100% on days 5 to 15. The median kidney or liver CFU were 2 or 3 log10 CFU, respectively, on day 15; despite this, mortality was low through 21 days of infection."}, "[1]": {"tested_on": "human colon carcinoma cells", "details": "synthetic c-di-GMP; cited from earlier work"}, "Human immature DCs": {"tested_on": "Human immature DCs", "experiment": "Maturation of human monocyte-derived DCs (surface markers, flow cytometry)", "type": "cell-based", "details": "24 hours", "method": "Buffy coats were obtained from healthy human volunteers and fractionated over Histopaque-1077. The peripheral blood mononuclear cells (PBMC) layer was recovered and erythrocyte-depleted by incubation in red blood cell lysis buffer for 5 minutes at room temperature. PBMCs were cultured in complete medium (RPMI 1640, 1% L-glutamine, 1% penicillin/streptomycin, and 10% low endotoxin FCS) for 2 hours in T75 flasks (Corning). Following incubation, nonadherent cells were removed by three washes with 1× PBS (Invitrogen, Carlsbad, Calif.). The remaining adherent cells were then cultured in complete medium supplemented with GM-CSF and IL-4 (50 ng/mL each). Human and murine IL-4 and GM-CSF were purchased from Peprotech (Rocky Hill, N.J.). On day 2 and day 4, the DC cultures received an additional dose of GM-CSF and IL-4 (50 ng/mL each). On day 5, non-adherent DC were harvested by gentle pipetting, counted, and plated in fresh medium containing GM-CSF and IL-4 (50 ng/mL each). […]\nSurface expression of various markers was assessed using CellQuest analysis software on a FACScalibur (Becton-Dickinson) flow cytometer. Surface expression was determined using the following FITC- and PE-conjugated antibodies: CD86-FITC (Research Diagnostics), CCR7-PE (R&D Systems), CD80-FITC, CD83-FITC, HLA-DR-FITC (BD Pharmingen). The isotype control antibodies were used accordingly in all experiments and were purchased from Pharmingen. Human DC were incubated in 1% human AB serum/PBS and were incubated with rat anti-CD16/CD32 (BD Phamingen) to block non-specific binding. Total RNA was extracted using the RNeasy kit according to the manufacturer's protocol (Qiagen). […] Emitted fluorescence for each reaction was measured during the annealing/extension phase, and amplification plots were analyzed using the MX4000 software version 3.0 (Stratagene). Quantity values (i.e., copies) for gene expression were generated by comparison of the fluorescence generated by each sample with standard curves of known quantities. Next, the calculated number of copies was divided by the number of copies of the housekeeping gene GAPDH."}, "P. carinii": {"tested_on": "P. carinii", "type": "in vivo, Pneumocystis carinii", "details": "C57BL/6 mice pretreated 48- and 24 h prior to infection"}},
  "data": [
    {"smiles": "Nc1nc(=O)c2ncn([C@@H]3OC4COP(=O)(O)O[C@H]5[C@@H](O)[C@H](n6cnc7c(=O)nc(N)[nH]c76)O[C@@H]5COP(=O)(O)OC4C3O)c2[nH]1", "note": "(stereo partly shown) [c-di-GMP, Bis(3′→5′)-cyclic diguanylic acid]", "values": [
      {"measurement": "activation of JNK", "setting": "JNK", "result": "did not activate"},
      {"measurement": "mucosal infection and dissemination compared to untreated controls", "setting": "C. albicans", "result": "reduce mucosal infection"},
      {"measurement": "basal and growth factor induced proliferation of human colon carcinoma cells", "setting": "[1]", "result": "inhibits"},
      {"measurement": "CD83 expression, net MFI", "setting": "Human immature DCs; 200 uM c-di-GMP or LPS (positive control), untreated net MFI=4.89, FIG. 10A", "result": 63.34},
      {"measurement": "expression of maturation markers CD80, CD86, CCR7, and MHC class II", "setting": "Human immature DCs; 200 uM, FIG. 10C", "result": "increase"},
      {"measurement": "concentration at which significant increases in surface CD83 begin", "setting": "Human immature DCs; 5 to 500 uM, FIG. 10B", "result": 32, "unit": "µM"},
      {"measurement": "survival", "setting": "P. carinii", "result": "increased survival"}
    ]}
  ]
}
